# Values of other authors in patent publication US20150290158A1, “X-RAY CONTRAST MEDIA COMPOSITIONS AND METHODS OF USING THE SAME TO TREAT, REDUCE OR DELAY THE ONSET OF CNS INFLAMMATION AND INFLAMMATION ASSOCIATED CONDITIONS” (priority 2012, published 2015).
# Peptide text beside a SMILES is read from it.
# How the values were obtained:
# TNF-alpha = details: in vitro
# [1] = molecular target: angiotensin converting enzyme (ACE) (Homo sapiens, UniProt P12821); details: compared with commercial iopamidol (contains chelator); from Lasser et al., 1990
# mast cell degranulation = details: in vitro, immunological and non-immunological stimuli
# [2] = tested on: allergen induced nasal obstruction; details: used as a nasal spray, in vivo
# Sequence of angiotensin converting enzyme (ACE) (P12821 30-1306, species assumed): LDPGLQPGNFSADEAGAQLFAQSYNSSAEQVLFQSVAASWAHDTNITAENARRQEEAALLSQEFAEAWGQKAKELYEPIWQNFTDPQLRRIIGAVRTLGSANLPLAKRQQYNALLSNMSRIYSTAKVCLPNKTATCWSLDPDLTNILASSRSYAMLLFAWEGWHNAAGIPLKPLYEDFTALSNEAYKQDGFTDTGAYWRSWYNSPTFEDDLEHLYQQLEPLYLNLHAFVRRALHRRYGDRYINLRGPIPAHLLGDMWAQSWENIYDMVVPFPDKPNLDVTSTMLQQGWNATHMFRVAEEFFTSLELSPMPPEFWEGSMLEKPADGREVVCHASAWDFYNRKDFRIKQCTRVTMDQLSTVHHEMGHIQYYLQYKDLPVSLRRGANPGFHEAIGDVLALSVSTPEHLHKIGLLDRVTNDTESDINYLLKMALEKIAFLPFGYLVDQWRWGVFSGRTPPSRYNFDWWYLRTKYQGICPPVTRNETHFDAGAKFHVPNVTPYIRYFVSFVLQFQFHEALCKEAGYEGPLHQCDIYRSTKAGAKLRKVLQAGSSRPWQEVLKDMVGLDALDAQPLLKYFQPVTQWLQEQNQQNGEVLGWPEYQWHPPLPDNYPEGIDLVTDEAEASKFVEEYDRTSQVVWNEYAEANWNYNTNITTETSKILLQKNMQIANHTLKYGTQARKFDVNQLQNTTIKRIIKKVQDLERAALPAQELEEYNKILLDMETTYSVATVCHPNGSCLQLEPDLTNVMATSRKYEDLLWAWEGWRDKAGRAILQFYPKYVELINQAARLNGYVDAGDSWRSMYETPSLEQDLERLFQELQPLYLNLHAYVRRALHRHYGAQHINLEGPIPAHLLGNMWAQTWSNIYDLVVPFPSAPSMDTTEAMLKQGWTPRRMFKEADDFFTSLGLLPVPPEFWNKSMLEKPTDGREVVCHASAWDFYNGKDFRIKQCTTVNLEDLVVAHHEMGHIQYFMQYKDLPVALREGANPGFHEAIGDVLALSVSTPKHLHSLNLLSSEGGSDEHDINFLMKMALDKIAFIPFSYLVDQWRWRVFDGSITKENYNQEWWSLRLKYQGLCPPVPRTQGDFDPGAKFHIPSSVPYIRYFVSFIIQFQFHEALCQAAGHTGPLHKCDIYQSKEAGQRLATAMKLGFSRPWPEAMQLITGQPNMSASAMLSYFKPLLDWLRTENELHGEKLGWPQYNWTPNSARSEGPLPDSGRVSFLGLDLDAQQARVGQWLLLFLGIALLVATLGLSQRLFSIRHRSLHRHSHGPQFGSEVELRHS
structure (smiles),measurement,setting,value
CCCc1c2oc(C(=O)[O-])cc(=O)c2cc2c(=O)cc(C(=O)[O-])n(CC)c12.[Na+].[Na+] [nedocrimal sodium],inhibition of TNF-alpha,TNF-alpha,inhibited TNF-alpha in vitro
"C[C@H](O)C(=O)Nc1c(I)c(C(=O)NC(CO)CO)c(I)c(C(=O)NC(CO)CO)c1I [purified iopamidol, iopamidol]",inhibition of ACE,[1],diminishes the inhibition ACE significantly
CC(=O)N[C@@H](CC(=O)[O-])C(=O)N[C@@H](CCC(=O)[O-])C(=O)O.[Mg+2] [magnesium salt of n-acetyl aspartyl glutamic acid] (Ac-Asp-Glu-OH),mast cell degranulation,mast cell degranulation,inhibit mast cell degranulation
same,allergen induced nasal obstruction,[2],reduce allergen induced nasal obstruction
O=C(O)c1cc(=O)c2c(OCC(O)COc3cccc4oc(C(=O)O)cc(=O)c34)cccc2o1 [Sodium cromoglycate],inhibition of TNF-alpha,TNF-alpha,inhibited TNF-alpha in vitro
